Data on five compounds can be found in publication PMC12434536, “Radiosynthesis and Preclinical Evaluation of a Carbon-11 Labeled Phosphodiesterase 7 Inhibitor for PET Neuroimaging” (ACS Medicinal Chemistry Letters, 2025).

In data set [1] the test system is GSK3. The note with it: Figure 1, literature compounds; cited from earlier work.
Data set [2] concerns PDE7. The note with it: Figure 1, literature compounds; cited from earlier work.
Data set [3] deals with PDE7. Kind of data set: microPET imaging in mice. The data set is classed as in vivo, C57BL/6 mice. The note with it: p.i.
Description: C57BL/6 mice (female; 8 weeks, 20–25 g) and Sprague-Dawley rats (male;
Rodent PET scans were carried out using a Genisys 4 PET (Sofie Biosciences, Culver, CA,
manufacturer’s acquisition software. Volumes of interest, including whole brain, cortex,
A short description of data set [4]: Radiometabolite analysis in brain and plasma. The note with it: n = 2; for parent fraction in plasma: rat plasma. The format is in vivo, SD rats. Here is the method: After intravenous injection of [11C]27 through the tail vein, SD rats were sacrificed at 5 min and 30 min post injection. Blood samples were collected and centrifuged at 14,000 rpm for 3 min at 4 °C to separate the plasma. The supernatant was collected and added to an ice-cooled test tube containing 100 μL of CH 3CN. After vortex for 10 s, the mixture was centrifuged at 14000 rpm for 3 min at 4 °C for deproteinization. The supernatant was collected, and the process was repeated until no precipitations were observed when CH3CN was added. The rat brain was immediately dissected, homogenized with 400 μL of ice-cooled CH3CN, and then centrifuged at 14,000 rpm for 5 min at 4 °C. The supernatant was collected in a test tube containing 100 μL of ice-cooled CH 3CN, and the process (vortex and centrifuge) was repeated until no precipitations were observed when CH3CN was added. An aliquot of the supernatant (100 µL), obtained from the brain homogenate, was injected into and analyzed by a radio-HPLC system. The percentage of [11C]27 to total radioactivity (corrected for decay) on the HPLC charts was calculated as (peak area for [11C]27/total peak area) × 100. The same procedure was used for metabolite analysis in plasma.
Statistical analysis was performed by Student’s two-tailed t-test, and asterisks were used to indicate statistical significance: * p < 0.05, ** p ≤ 0.01, *** p ≤ 0.001 and ****p < 0.0001.

Data set [5] relates to PDE7. Kind of data set: PET imaging in nonhuman primates (baseline and self-blocking). The format is in vivo, Cynomolgus monkeys. The note with it: monkeys.
The subject of data set [6] is PDE7. As to the kind of experiment: PET imaging in rats (baseline and self-blocking). The following applies: rats. The data set is classed as in vivo, Sprague-Dawley rats. Here is the method:
page 10: All animal experiments were approved by the Institutional Animal Care and Use Committee of Massachusetts General Hospital or the National Institute of Radiological Sciences (Japan). C57BL/6 mice (female; 8 weeks, 20-25 g) and Sprague-Dawley rats (male; 8-9 weeks; 264-310 g) were kept on a 12 h light/12 h dark cycle and were allowed food and water ad libitum. Rodent PET scans were carried out using a […] (Sofie Biosciences, Culver, CA, USA) or a Siemens Inveon PET/CT system. Animals were kept under anesthesia using 1-2% (v/v) isoflurane in oxygen during the scan. The radiotracer (1.85 MBq for mice; 42-53 MBq for rats) was injected into the tail vein via a preinstalled catheter. A dynamic scan in 3D list mode was acquired for 60 min. The PET dynamic images were reconstructed using the manufacturer's acquisition software. Volumes of interest, including whole brain, cortex, striatum, hippocampus, thalamus and cerebellum were placed using AMIDE / PMOD software. The radioactivity was decay-corrected and expressed as standardized uptake value (SUV = radioactivity per mL tissue / injected radioactivity × bodyweight). S8

Data set [7] is described as follows: Lipophilicity by shake-flask method. The data set is classed as physicochemical. The note with it: pH 7.4, n-octanol/PBS, n = 3. The protocol: The general procedure for lipophilicity measurement was previously described, 4 with minor modification in this work. Briefly, the measurement of LogD value was carried out by mixing [11C]27 (radiochemical purity > 99%) with n-octanol (3.0 g) and PBS (0.1 M, 3.0 g) in a test tube. Both n-octanol and PBS were pre-saturated with each other prior to use. The tube was first vortexed for 5 min, followed by centrifugation (~3500-4000 rpm) for an additional 5 min. PBS and n-octanol were aliquoted, weighed and the radioactivity in each component was measured using a Cobra Model 5002/5003 gamma counter. The LogD was determined by Log [ratio of radioactivity in n-octanol and aqueous layer, respectively] (n = […]
For the evaluation of plasma protein binding,5 55.5 MBq radiotracer was added to 150 μL of plasma, which was pre-incubated under 37 °C for 5 min (n = 3). The samples were incubated at 37 °C for 10 min. To each 150 μL of radiotracer-plasma solution was added 300 μL of ice-cold PBS and all samples were briefly vortexed. […] The radioactivity (in Becquerel) was measured in the protein fraction (Aprotein), filtrate, and filter unit using a gamma counter (Wizard, PerkinElmer), Atotal was calculated as the sum of radioactivity, and the free fraction f u was calculated according to the following eq.: f u = 1-

Data set [8] has as its target T1, HEK293-PDE7B recombinant cell lines (Homo sapiens, UniProt Q9NP56).
T1 construct: host or cells: HEK293
Kind of data set: In vitro cell uptake and blocking of [11C]27. The data set is classed as cell-based. The protocol: Control study: HEK293-PDE7B Recombinant cells (catalog#60412, BPS Bioscience) and HEK293 control cells (catalog# CRL-1573, ATCC) – both in logarithmic growth phase – were plated in a 24 well plate (2 × 10^5 cells per well) and cultured overnight. After 24 hr, each well was added 2 μCi of [ 11C]27, and incubated at 37 °C for 30 min or 60 min. The radioactive medium was aspirated and collected in a tube. The residual cells were washed twice with PBS, and then collected in the same tube. The cells were lysed with 1 N NaOH (200 μL) and washed twice with PBS, all the resulting solutions were collected in one tube.
The radioactivity in the collected supernatant and cell lysis buffer (600 μL/tube) was measured using a Cobra Model 5002/5003 gamma counter, respectively.
Blocking study: HEK293-PDE7B cells in logarithmic growth phase were plated in 24 well plate (2 × 10^5 cells per well) and cultured overnight. After 24 h, each well was added 2 μCi of [11C]27 with or without unlabeled reference compound 27 or BRL50481, respectively. The resulting culture medium contained 2 μCi of [ 11C]27, 1 µM of unlabeled compound 27 or BRL50481, and 5% DMSO. Cells were incubated at 37 °C for 60 min and samples were collected as described for the control study. The cell uptake was calculated according to the following eq.: cell uptake% = A lysis buffer/(A lysis buffer+Asupernate) (n = 4)

Data set [9] in a line: Whole-body ex vivo biodistribution. The format is in vivo. The note with it: CD-1 mice. The protocol: PET imaging in nonhuman primates
Cynomolgus monkeys used for PET/CT scan were deprived of food for 12h but allowed to drink water at any time. Animals (Male, bodyweight 5.0-5.2 kg) were anesthetized with ketamine, placed into the scanner (GE Discovery Elite 690, USA), and maintained with 2% isoflurane and 98% oxygen. A solution of [11C]27 (6.24–9.84 mCi) was injected into the monkey via a venous catheter, followed by a dynamic PET scan. For the blocking study, the blocking reagent reference compound 27 (0.4 or 1.0 mg/kg, iv) was used, followed by the injection of [11C]27. Time-activity curves of each brain region were extracted from the corresponding VOIs and brain uptake was decay-corrected and expressed as SUV. biodistribution studies in miceWhole-body ex vivo
A solution of [11C]27 (1.85 MBq/100 µL) was injected into CD-1 mice via the tail vein.
Animals were sacrificed at 5, 15, 30, and 60 min post radiotracer injection (n= 4 for each time point). […] The radioactivity in these tissues was measured using a Cobra Model 5002/5003 gamma counter, and all radioactivity measurements were decay corrected based on the half-life of carbon-11. The results are expressed as the percentage of injected dose per gram of wet tissue (%ID/g).

Data set [10] is described as follows: In vitro stability of the formulated tracer (PBS with 10% ethanol; serum). The format is in vitro ADME. The note with it: 30, 60, 90 min; PBS containing 10% ethanol and serum of rodents, NHPs, humans.
The test system of data set [11] is PDE4A4. The following applies: Figure 1, literature compounds; cited from earlier work.
For data set [12], the system named is PDE7A1. The following applies: Figure 1, literature compounds; cited from earlier work.
Data set [13] deals with PDE7B. The note with it: Figure 1, literature compounds; cited from earlier work.
The test system of data set [14] is PDE7A. The following applies: Figure 1, literature compounds; cited from earlier work.
The test system of data set [15] is PDE4D3. The note with it: Figure 1, literature compounds; cited from earlier work.

T1 sequence (Q9NP56 whole entry): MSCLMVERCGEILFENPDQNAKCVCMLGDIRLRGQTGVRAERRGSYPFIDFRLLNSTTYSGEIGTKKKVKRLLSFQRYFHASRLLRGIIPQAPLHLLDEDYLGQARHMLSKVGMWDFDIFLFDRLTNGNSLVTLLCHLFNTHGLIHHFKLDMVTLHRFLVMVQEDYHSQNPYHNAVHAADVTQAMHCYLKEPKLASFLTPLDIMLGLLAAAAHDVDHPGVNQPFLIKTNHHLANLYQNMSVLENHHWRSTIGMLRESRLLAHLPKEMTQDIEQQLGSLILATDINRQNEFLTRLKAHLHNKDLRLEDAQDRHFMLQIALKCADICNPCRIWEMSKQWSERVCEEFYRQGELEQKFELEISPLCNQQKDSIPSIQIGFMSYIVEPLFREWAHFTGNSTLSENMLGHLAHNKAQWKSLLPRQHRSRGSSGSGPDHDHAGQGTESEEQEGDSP

Regarding `c1ccc(-c2nc(=NCc3cccnc3)sn2-c2ccccc2)cc1` [Compound 23], the IC50 (as a rule, the concentration at which inhibition is half-maximal) in data set [1] was 1280 nM; in [2] it was 380 nM.
On to `[11CH3]Oc1ccc(Cl)c2c1C1(CCCCC1)NC(=O)N2` [[^11C]27], for which the “time to peak SUV in brain” value in data set [3] is not above 2 min. Besides, in data set [4] (rat brain, 5 min), the “intact parent fraction in brain” value was “More than 98%”. Also, the “parent fraction in brain homogenates” value in data set [4] (rat brain, 30 min postinjection) is on record as “more than 75%”. Moreover, the “parent fraction in plasma” value was 70% ± 18% in data set [4] (5 min p.i.) and 19% ± 0.6% in data set [4] (30 min p.i.). The “peak SUV (SUVmax) in brain” value in [5] (baseline) stood at 3 SUV. Moreover, the “time of peak SUV in brain” value in data set [5] (p.i.) is recorded as “about 3 min”. Moreover, the “plateau of brain uptake” value in data set [6] (at 20 min postinjection) is 0.5 SUV. In data set [6] (at approximately 5 min postinjection), the “highest SUV values in brain” value is given as more than 2 SUV. Moreover, the logD (as a rule, lipophilicity at a set pH, counting ionised and neutral species) in data set [7] was 3.67 ± 0.04. Also, the “radioactivity uptake in HEK293-PDE7B cells versus control cells” value in [8] (30 and 60 min incubation) was 6–7 fold. Besides, the “radioactivity accumulation in heart” value in [9] (5 min p.i.) is “up to 24 % ID/g”. For the same compound, the cardiac uptake entry in data set [9] (within 60 min) is reported as “less than 2%”. Besides, in data set [10], the in vitro stability entry is reported as “no obvious degradation or radiolysis was found”.
As to `O=C(Nc1ccc(N2CCOCC2)cc1)c1cn(Cc2c(F)cccc2Cl)c2ccc(=O)[nH]c2c1=O` [Compound 13], the IC50 in data set [11] was more than 1000 nM; in data set [12] it was 13 nM.
As for `Cc1ccc([N+](=O)[O-])cc1S(=O)(=O)N(C)C` [Compound 17], the IC50 in data set [13] is 12100 nM; in [14], 150 nM. In addition, the “blockade of [11C]27 cell uptake” value in data set [8] (blocker 1 μM, 60 min incubation, PDE7B overexpressing HEK293 cells, n = 4) is recorded as approximately 55%.
Consider `Cn1nc(-c2ccc(C(N)=O)cc2)s/c1=N\C1CCCCC1` [Compound 12], for which the IC50 was 15300 nM in data set [15] and 61 nM in data set [12].
